Measurements from patent US20240091242A1, “LIPIDS THAT REDUCE LUNG DAMAGE, IMPROVE PULMONARY FUNCTION AND DECREASE PRO-INFLAMMATORY CYTOKINES” (Signpath Pharma, Inc., priority 2021, published 2024).

Tested on: murine LPS ARDS model
Test: Respiratory functions by whole-body plethysmograph, murine LPS ARDS model
Type: in vivo, mouse
Settings: P<0.001
Description: In the ARDS group, mice received Escherichia coli O111:B4 lipopolysaccharide (50 μg in 0.05 mL saline, i.t.), while, in the control group, the animals received an instillation of saline (0.05 mL, i.t.). For intratracheal instillation, mice were slightly anesthetized with isoflurane.
The lipid SPPCT-800 was dissolved in water (low dose—2 mg/ml; high dose—20 mg/ml). For the 24-hour study, two treatment approaches were used. Mice received a single dose of SPPCT-800 (200 mg/kg, per gavage) as prevention (30 minutes before the LPS instillation), or as a single dose of either 20 mg/kg or 200 mg/kg as therapy (3-hour after the LPS instillation). For the 72-hour study, mice received a total of 8 treatments of SPPCT-800 (200 mg/kg) starting at 3-hour after the LPS instillation. Disease progression in mice was assessed by the evaluation of pulmonary functions, blood oxygen saturation, and body weight change. On the terminal day of each study (24 hours or 72 hours), measurement of cytokine levels in the plasma and BALF, and histopathology evaluations were done.
Respiratory Functions. All mice were introduced to the plethysmograph chamber environment. After the acclimatization period, the functional respiratory parameters were assessed by the whole-body plethysmograph (VivoFlow, SCIREQ, Montreal, Canada) at 0 hour (baseline), at 24-hour post-LPS instillation, and at 48 and 72-hour post-LPS instillation. Each measurement was performed with the mouse placed alone in an unrestrained whole-body plethysmography (WBP) chamber to measure respiratory functions. The WBP trace allowed us to determine specific information regarding the breathing pattern, and to derive important information associated with the development of inflammation. The functional respiratory parameters analyzed included respiratory rate, PenH (pulmonary congestion index), and inspiratory/expiratory time measurements. PenH, was used as an index of edema, inflammation and congestion (broncho-restriction).^24
Statistical Analysis. Results are expressed as means±SEM. Comparisons were made on normally distributed data using ANOVA, followed by a Fisher post hoc test to assess the difference between LPS+vehicle group with GraphPad Prism Software version 8.0 (San Diego, CA, USA). Differences were considered statistically significant when P values were less than 0.05. (* Shown difference versus Sham animals and # shown difference versus LPS+Vehicle group. * Means P<0.05, ** P<0.01, *** P<0.001 while # means P<0.05, ##P<0.01 and ###P<0.001).

SMILES: CCCCCCCCCCCCCC(=O)OCC(COP(=O)([O-])OCC(COC(=O)CCC)OC(=O)CCC)OC(=O)CCCCCCCCCCCCC.CCCCCCCCCCCCCC(=O)OCC(COP(=O)([O-])OCC(COC(=O)CCC)OC(=O)CCC)OC(=O)CCCCCCCCCCCCC.[Mg+2] (stereo not shown) [SPPCT-800]
- inspiratory time (at 24 hours): Significant reductions
- pulmonary congestion index (PenH) (at 24 hours): Significant reductions
- expiratory time (at 48 hours): significant reductions
- pulmonary congestion index (PenH) (at 48 hours): significant reductions
